Reference: US12479804B2, “Herbicidal compounds” (SYNGENTA CROP PROTECTION AG, priority 2019, dated 2025)

Tests used:
Experiment in all cases: Glasshouse herbicidal test, pre- and post-emergence, percentage damage to the plant
Assay type in all cases: in vivo
[1] = test system: Alopecurus myosuroides (ALOMY); conditions: 250 g/h, evaluated after 13 days; for ALOMY POST percentage damage caused to the plant (five-point scale): post-emergence; for ALOMY PRE percentage damage caused to the plant (five-point scale): pre-emergence
Protocol: (§1) Seeds of a variety of test species are sown in standard soil in pots (Lolium perenne (LOLPE), Setaria faberi (SETFA), Alopecurus myosuroides (ALOMY), Echinochloa crus-galli (ECHCG), Avena fatua (AVEFA)). After cultivation for one day (pre-emergence) or after 8 days cultivation (post-emergence) under controlled conditions in a glasshouse (at 24/16° C., day/night; 14 hours light; 65% humidity), the plants are sprayed with an aqueous spray solution derived from the formulation of the technical active ingredient in acetone/water (50:50) solution containing 0.5% Tween 20 (polyoxyethelyene sorbitan monolaurate, CAS RN 9005-64-5). Compounds are applied at 250 g/h. The test plants are then grown in a glasshouse under controlled conditions in a glasshouse (at 24/16° C., day/night; 14 hours light; 65% humidity) and watered twice daily. After 13 days for pre and post-emergence, the test is evaluated for the percentage damage caused to the plant. The biological activities are shown in the following table on a five-point scale (5=80-100%; 4=60-79%; 3=40-59%; 2=20-39%; 1=0-19%).

Lolium perenne (LOLPE) = conditions: 250 g/h, evaluated after 13 days; for LOLPE POST percentage damage caused to the plant (five-point scale): post-emergence; for LOLPE PRE percentage damage caused to the plant (five-point scale): pre-emergence
Protocol: as §1

Avena fatua (AVEFA) = conditions: 250 g/h, evaluated after 13 days; for AVEFA POST percentage damage caused to the plant (five-point scale): post-emergence; for AVEFA PRE percentage damage caused to the plant (five-point scale): pre-emergence
Protocol: as §1

Setaria faberi (SETFA) = conditions: 250 g/h, evaluated after 13 days; for SETFA POST percentage damage caused to the plant (five-point scale): post-emergence; for SETFA PRE percentage damage caused to the plant (five-point scale): pre-emergence
Protocol: as §1

[2] = test system: Echinochloa crus-galli (ECHCG); conditions: 250 g/h, evaluated after 13 days; for ECHCG POST percentage damage caused to the plant (five-point scale): post-emergence; for ECHCG PRE percentage damage caused to the plant (five-point scale): pre-emergence
Protocol: as §1

CC#Cc1cc(C)c(C2=C(OC(C)=O)CC3(CCCN(C(C)=O)CC3)CC2=O)c(C)c1 (stereo not shown) [Compound P1]
5 (5=80-100%): ALOMY POST percentage damage caused to the plant (five-point scale) [1] | ALOMY PRE percentage damage caused to the plant (five-point scale) [1] | LOLPE POST percentage damage caused to the plant (five-point scale) (Lolium perenne (LOLPE)) | LOLPE PRE percentage damage caused to the plant (five-point scale) (Lolium perenne (LOLPE)) | AVEFA POST percentage damage caused to the plant (five-point scale) (Avena fatua (AVEFA)) | AVEFA PRE percentage damage caused to the plant (five-point scale) (Avena fatua (AVEFA)) | SETFA POST percentage damage caused to the plant (five-point scale) (Setaria faberi (SETFA)) | SETFA PRE percentage damage caused to the plant (five-point scale) (Setaria faberi (SETFA)) | ECHCG POST percentage damage caused to the plant (five-point scale) [2] | ECHCG PRE percentage damage caused to the plant (five-point scale) [2]

CC#Cc1cc(C)c(C2C(=O)CC3(CCN(C(C)=O)C(C)C3)CC2=O)c(C)c1 (stereo not shown) [Compound A58]
5 (5=80-100%): ALOMY POST percentage damage caused to the plant (five-point scale) [1] | ALOMY PRE percentage damage caused to the plant (five-point scale) [1] | LOLPE POST percentage damage caused to the plant (five-point scale) (Lolium perenne (LOLPE)) | LOLPE PRE percentage damage caused to the plant (five-point scale) (Lolium perenne (LOLPE)) | AVEFA POST percentage damage caused to the plant (five-point scale) (Avena fatua (AVEFA)) | AVEFA PRE percentage damage caused to the plant (five-point scale) (Avena fatua (AVEFA)) | SETFA POST percentage damage caused to the plant (five-point scale) (Setaria faberi (SETFA)) | SETFA PRE percentage damage caused to the plant (five-point scale) (Setaria faberi (SETFA)) | ECHCG POST percentage damage caused to the plant (five-point scale) [2] | ECHCG PRE percentage damage caused to the plant (five-point scale) [2]

CC#Cc1cc(C)c(C2C(=O)CC3(C=CN(C(=O)C4CC4)CC3)CC2=O)c(C)c1 (stereo not shown) [Compound A49]
5 (5=80-100%): ALOMY POST percentage damage caused to the plant (five-point scale) [1] | ALOMY PRE percentage damage caused to the plant (five-point scale) [1] | LOLPE POST percentage damage caused to the plant (five-point scale) (Lolium perenne (LOLPE)) | LOLPE PRE percentage damage caused to the plant (five-point scale) (Lolium perenne (LOLPE)) | AVEFA POST percentage damage caused to the plant (five-point scale) (Avena fatua (AVEFA)) | AVEFA PRE percentage damage caused to the plant (five-point scale) (Avena fatua (AVEFA)) | SETFA POST percentage damage caused to the plant (five-point scale) (Setaria faberi (SETFA)) | SETFA PRE percentage damage caused to the plant (five-point scale) (Setaria faberi (SETFA)) | ECHCG POST percentage damage caused to the plant (five-point scale) [2] | ECHCG PRE percentage damage caused to the plant (five-point scale) [2]

CC#Cc1cc(C)c(C2C(=O)CC3(C=CN(C(=O)COC)CC3)CC2=O)c(C)c1 (stereo not shown) [Compound A15]
5 (5=80-100%): ALOMY POST percentage damage caused to the plant (five-point scale) [1] | ALOMY PRE percentage damage caused to the plant (five-point scale) [1] | LOLPE POST percentage damage caused to the plant (five-point scale) (Lolium perenne (LOLPE)) | LOLPE PRE percentage damage caused to the plant (five-point scale) (Lolium perenne (LOLPE)) | AVEFA POST percentage damage caused to the plant (five-point scale) (Avena fatua (AVEFA)) | AVEFA PRE percentage damage caused to the plant (five-point scale) (Avena fatua (AVEFA)) | SETFA POST percentage damage caused to the plant (five-point scale) (Setaria faberi (SETFA)) | SETFA PRE percentage damage caused to the plant (five-point scale) (Setaria faberi (SETFA)) | ECHCG POST percentage damage caused to the plant (five-point scale) [2] | ECHCG PRE percentage damage caused to the plant (five-point scale) [2]
